Test results taken from PMC11858207, “Discovery of Isobavachin, a Natural Flavonoid, as an Apolipoprotein E4 (ApoE4) Structure Corrector for Alzheimer’s Disease” (Molecules, 2025).
Values joined by “and” are separate entries in the source; they are usually repeats but may differ in a detail not shown here. Identical values can stand only once.

Experiments:
[1] = target: T1, His-Sumo-DNPH1 (2′-deoxynucleoside 5′-phosphate N-hydrolase 1) (Homo sapiens, UniProt O43598); assay: Surface plasmon resonance (SPR) binding, negative control protein
T1 construct: made in house; host or cells: E. coli
T1 sequence (O43598 1-174): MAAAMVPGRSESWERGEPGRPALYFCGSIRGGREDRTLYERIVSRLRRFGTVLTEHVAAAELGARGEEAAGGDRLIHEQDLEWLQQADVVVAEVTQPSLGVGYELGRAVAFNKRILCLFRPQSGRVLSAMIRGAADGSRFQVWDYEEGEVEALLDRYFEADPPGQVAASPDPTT
Excerpt: (§1) The top virtual hit Isobavachin was further subjected to surface plasmon resonance (SPR) analysis using Biacore T200 (Cytiva, Marlborough, MA, USA) to determine its binding constants with both the ApoE3 and ApoE4 proteins. Together with the human recombinant ApoE3 and ApoE4 proteins, a negative control protein 2′-deoxynucleoside 5′-phosphate N-hydrolase (His-Sumo-DNPH1) was also included in the SPR analysis. The His-Sumo-DNPH1 is structurally unrelated to ApoE proteins, while having a similar size as ApoE proteins (~30 KDa).
(§2) The biophysical binding analysis of ligands with ApoE3 and ApoE4 proteins was carried out using the SPR technique. Human recombinant ApoE3 or ApoE4 proteins were purchased from PeproTech (Cranbury, NJ, USA) and reconstituted according to the manufacturer’s instructions. The negative control protein was His-Sumo-DNPH1 (2′-deoxynucleoside 5′-phosphate N-hydrolase 1), produced in-house in E. coli by The Wistar Institute, Philadelphia. The proteins were covalently attached to a carboxymethyl dextran sensor chip (CMD700M, from Xantec bioanalytics, Düsseldorf, Germany) using standard amine coupling in HEPES buffered saline. The chip is first conditioned for 180 s at 10 µL/min with 1 M NaCl, 0.1 mM Na Borate, pH 9.0, and then activated with 250 mM EDC/100 mM NHS for 600 s at 10 µL/min. The ApoE3/4 and DNPH1 proteins diluted in 10 mM sodium acetate (pH 5.5 and 4.0, respectively) were injected and immobilized on respective flow cells. After immobilization, the remaining activated sites were blocked with 1 M ethanolamine at 10 µL/min for 180 s. Test compounds (purchased from Cayman Chemical (Ann Arbor, MI, USA) and MedChemExpress (Monmouth Junction, NJ, USA)) were first diluted in pure DMSO, which were then further diluted in the running buffer without DMSO (10 mM HEPES, pH 7.4, 150 mM NaCl, 0.005% Tween20) to match the DMSO concentrations of the sample and the running buffer. The association and dissociation times were 60s and 120s, respectively, and the flow rate was 30 µL/min. After each compound injection, the needle was washed in 50% DMSO to reduce compound carry-over. Solvent correction cycles were also included to correct for bulk refractive index changes associated with DMSO.

human recombinant ApoE3 = target: T2, human recombinant ApoE3 (Homo sapiens, UniProt P02649); assay: Surface plasmon resonance (SPR) binding, ApoE3; details: Biacore T200
T2 construct: purchased PeproTech
T2 sequence (P02649 19-317): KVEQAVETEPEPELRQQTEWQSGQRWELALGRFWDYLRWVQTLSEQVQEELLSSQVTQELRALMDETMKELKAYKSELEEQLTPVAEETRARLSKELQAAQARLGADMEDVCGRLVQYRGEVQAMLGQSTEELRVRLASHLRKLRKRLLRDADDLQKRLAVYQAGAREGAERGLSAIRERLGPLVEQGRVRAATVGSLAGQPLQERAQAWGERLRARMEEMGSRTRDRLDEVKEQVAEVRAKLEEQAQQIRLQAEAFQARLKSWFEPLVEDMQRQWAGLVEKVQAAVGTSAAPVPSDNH
Excerpt: as §1, §2

human recombinant ApoE4 = target: T3, human recombinant ApoE4 (Homo sapiens, UniProt P02649, C130R); assay: Surface plasmon resonance (SPR) binding, ApoE4; details: Biacore T200
T3 construct: purchased PeproTech
T3 sequence (P02649 19-317 C130R): as the sequence (P02649 19-317) above, with C112R counted along it
Excerpt: as §1, §2

[2] = design: method as in PMID 29425649; details: cited from earlier work
ApoE4 = target: ApoE4; design: method as in PMID 30933499; details: experimental ApoE4 binding Kd reported by AbbVie team; read-out: NMR Kd; cited from earlier work

Structure (SMILES) | DNPH1 Kd [1] | Kd (human recombinant ApoE3) | Kd (human recombinant ApoE4) | Kd [1] [µM] | blood–brain barrier (BBB) penetration [2] | Kd (ApoE4) [µM]
CC(C)=CCc1cc2c(cc1O)O[C@H](c1ccc(O)cc1)CC2=O [Bavachin] | No binding | 59 µM | 64 µM | – | – | –
O=c1c(-c2ccc(O)cc2)coc2cc(O)ccc12 [Daidzein] | – | > 100 µM | > 100 µM | > 100 | – | –
O=c1c(-c2ccc(O)cc2)coc2cc(O)cc(O)c12 [Genistein] | – | > 100 µM | > 100 µM | > 100 | – | –
CC(C)=CCc1cc([C@@H]2CC(=O)c3ccc(O)c(CC=C(C)C)c3O2)ccc1O [Glabrol] | – | > 100 µM | 77 µM | > 100 | – | –
Oc1ccc(C2=Cc3ccc(O)cc3OC2)cc1 [Idronoxil] | – | > 100 µM | > 100 µM | > 100 | – | –
CC(C)=CCc1c(O)ccc2c1O[C@H](c1ccc(O)cc1)CC2=O [Isobavachin] | – | ~0.62 µM and 0.62 µM | ~0.54 µM and 0.54 µM | > 100 | readily penetrate | –
COc1cc(O)c(CC=C(C)C)c2c1C(=O)CC(c1ccc(O)cc1)O2 (stereo not shown) [Isoxanthohumol] | – | 38 µM | 40 µM | > 100 | – | –
CC(C)=CCc1c(-c2ccc(O)cc2O)oc2c3c(cc(O)c2c1=O)OC(C)(C)C=C3 [Morusin] | – | > 100 µM | > 100 µM | 69 | – | –
CC(C)=CCc1c(-c2ccc(O)cc2O)oc2c(CC=C(C)C)c(O)cc(O)c2c1=O [Mulberrin] | – | > 100 µM | > 100 µM | > 100 | – | –
N=C(N)C1(c2cccc(Cl)c2)CCC1 [compound 83673143] | – | – | – | – | – | 900 ± 108
CC(C)(O)c1ccc(-c2cc(Cl)cc(C3(C(=N)N)CCC3)c2)cc1 [compound 137796780] | – | – | – | – | – | 30 ± 4
N=C(N)C1(c2cc(Cl)cc(-c3ccccc3)c2)CCC1 [compound 155530661] | – | – | – | – | – | 230 ± 24
CCNS(=O)(=O)c1ccc(-c2cc(Cl)cc(C3(C(=N)N)CCC3)c2)cc1 [compound 155552638] | – | – | – | – | – | 20 ± 4
N=C(N)C1(c2cc(Cl)cc(-c3ccc(CO)c(Cl)c3)c2)CCC1 [compound 155557185] | – | – | – | – | – | 8 ± 3
CC(=O)NCc1ccc(-c2cc(Cl)cc(C3(C(=N)N)CCC3)c2)cc1 [compound 155563897] | – | – | – | – | – | 20 ± 3
